From patent US20120045393A1 (priority 2009, published 2012)
Non-standard residues stand in square brackets, D forms with d. Residues, ends and D or L forms follow the SMILES beside them. *: point of attachment. DOTA = O=C(O)CN1CCN(CC(=O)O)CCN(CC(=O)*)CCN(CC(=O)O)CC1; Bpa = N[C@@H](Cc1ccc(C(=O)c2ccccc2)cc1)C(=O)O; d2Nal = N[C@H](Cc1ccc2ccccc2c1)C(=O)O; azaGly = NNC(=O)O
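Note: Cell-associated radioactivity on confluent EFO-27 monolayers in 96-well plates, measured by microplate scintillation counting.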

Each compound was assayed on LHRH binding sites on human ovarian cancer cells (EFO-27). Conditions: not given.
Work on COc1ccccc1CNC(=O)[C@@H]1CCCN1C(=O)[C@H](Cc1ccc(C(=O)c2ccccc2)cc1)NC(=O)[C@H](Cc1c[nH]c2ccccc12)NC(=O)[C@@H](CCCNC(=N)N)NC(=O)[C@H](Cc1c[nH]cn1)NC(=O)[C@H](CO)NC(=O)[C@H](Cc1c[nH]c2ccccc12)NC(=O)[C@H](CCCNC(=N)N)NC(=O)[C@@H](Cc1ccc2ccccc2c1)NC(=O)CN1CCN(CC(=O)O)CCN(CC(=O)O)CCN(CC(=O)O)CC1 [compound 3020] yielded an EC50 of 450 nM. Work on CN(CC(=O)N[C@@H](Cc1c[nH]cn1)C(=O)N[C@@H](Cc1c[nH]c2ccccc12)C(=O)N[C@@H](CO)C(=O)N[C@@H](Cc1c[nH]cn1)C(=O)N[C@H](CCCNC(=N)N)C(=O)N[C@@H](Cc1c[nH]c2ccccc12)C(=O)N[C@@H](Cc1cccnc1)C(=O)N1CCC[C@H]1C(=O)NNC(N)=O)C(=O)CN1CCN(CC(=O)O)CCN(CC(=O)O)CCN(CC(=O)O)CC1 [BRU-2726] yielded an EC50 of 17400 nM. With N=C(N)NCCC[C@@H](NC(=O)[C@H](Cc1c[nH]cn1)NC(=O)[C@H](CO)NC(=O)[C@H](Cc1c[nH]c2ccccc12)NC(=O)[C@H](Cc1c[nH]cn1)NC(=O)[C@H](Cc1ccc2ccccc2c1)NC(=O)CN1CCN(CC(=O)O)CCN(CC(=O)O)CCN(CC(=O)O)CC1)C(=O)N[C@@H](Cc1c[nH]c2ccccc12)C(=O)N[C@@H](Cc1ccc(C(=O)c2ccccc2)cc1)C(=O)N1CCC[C@H]1C(=O)NNC(N)=O [BRU-2809] the EC50 was 3540 nM. CSCC[C@H](NC(=O)[C@H](Cc1c[nH]c2ccccc12)NC(=O)[C@H](CCCNC(=N)N)NC(=O)[C@@H](Cc1ccc2ccccc2c1)NC(=O)CN1CCN(CC(=O)O)CCN(CC(=O)O)CCN(CC(=O)O)CC1)C(=O)N[C@@H](Cc1c[nH]cn1)C(=O)N[C@H](CCCNC(=N)N)C(=O)N[C@@H](Cc1c[nH]c2ccccc12)C(=O)N[C@@H](Cc1ccc(C(=O)c2ccccc2)cc1)C(=O)N1CCC[C@H]1C(=O)NNC(N)=O [BRU-2964] ({DOTA}-[d2Nal]RWMH[dR]W[Bpa]P[azaGly]-NH2) was tested, and the EC50 was 220 nM. With CC(C)C[C@H](NC(=O)[C@H](Cc1c[nH]c2ccccc12)NC(=O)[C@H](CCCNC(=N)N)NC(=O)[C@@H](Cc1ccc2ccccc2c1)NC(=O)CN1CCN(CC(=O)O)CCN(CC(=O)O)CCN(CC(=O)O)CC1)C(=O)N[C@@H](Cc1c[nH]cn1)C(=O)N[C@H](CCCNC(=N)N)C(=O)N[C@@H](Cc1c[nH]c2ccccc12)C(=O)N[C@@H](Cc1ccc(C(=O)c2ccccc2)cc1)C(=O)N1CCC[C@H]1C(=O)NNC(N)=O [compound 3113] ({DOTA}-[d2Nal]RWLH[dR]W[Bpa]P[azaGly]-NH2) the EC50 was 1130 nM. N=C(N)NCCC[C@H](NC(=O)[C@H](Cc1ccc(C(=O)O)cc1)NC(=O)CN1CCN(CC(=O)O)CCN(CC(=O)O)CCN(CC(=O)O)CC1)C(=O)N[C@@H](Cc1c[nH]c2ccccc12)C(=O)N[C@@H](CO)C(=O)N[C@@H](Cc1c[nH]cn1)C(=O)N[C@H](CCCNC(=N)N)C(=O)N[C@@H](Cc1c[nH]c2ccccc12)C(=O)N[C@@H](Cc1ccc(C(=O)c2ccccc2)cc1)C(=O)N1CCC[C@H]1C(=O)NNC(N)=O [BRU-3092] gave an EC50 of 2000 nM. In the case of N=C(N)NCCC[C@H](NC(=O)[C@@H](Cc1ccc2ccccc2c1)NC(=O)CN1CCN(CC(=O)O)CCN(CC(=O)O)CCN(CC(=O)O)CC1)C(=O)N[C@@H](Cc1c[nH]c2ccccc12)C(=O)N[C@@H](Cc1ccncc1)C(=O)N[C@@H](Cc1c[nH]cn1)C(=O)N[C@H](CCCNC(=N)N)C(=O)N[C@@H](Cc1c[nH]c2ccccc12)C(=O)N[C@@H](Cc1ccc(C(=O)c2ccccc2)cc1)C(=O)N1CCC[C@H]1C(=O)NNC(N)=O [compound 2957], the EC50 is reported as 840 nM. CN(CC(=O)N[C@@H](Cc1c[nH]cn1)C(=O)N[C@@H](Cc1c[nH]c2ccccc12)C(=O)N[C@@H](CO)C(=O)N[C@@H](Cc1c[nH]cn1)C(=O)N[C@H](CCCNC(=N)N)C(=O)N[C@@H](Cc1c[nH]c2ccccc12)C(=O)N[C@@H](Cc1ccc(-c2ccccc2)cc1)C(=O)N1CCC[C@H]1C(=O)NNC(N)=O)C(=O)CN1CCN(CC(=O)O)CCN(CC(=O)O)CCN(CC(=O)O)CC1 [BRU-2625] gave an EC50 of 2140 nM. For CNCC(=O)N[C@@H](CCCNC(=N)N)C(=O)N[C@@H](Cc1c[nH]c2ccccc12)C(=O)N[C@@H](CO)C(=O)N[C@@H](Cc1c[nH]cn1)C(=O)N[C@H](CCCNC(=N)N)C(=O)N[C@@H](Cc1c[nH]c2ccccc12)C(=O)N[C@@H](Cc1ccc(C(=O)c2ccccc2)cc1)C(=O)N1CCC[C@H]1C(=O)NCCCCCNC(=O)CN1CCN(CC(=O)O)CCN(CC(=O)O)CCN(CC(=O)O)CC1 [compound 3085], the EC50 was 400 ± 250 nM. CNCC(=O)N[C@@H](CCCNC(=N)N)C(=O)N[C@@H](Cc1c[nH]c2ccccc12)C(=O)N[C@@H](CO)C(=O)N[C@@H](Cc1c[nH]cn1)C(=O)N[C@H](CCCNC(=N)N)C(=O)N[C@@H](Cc1c[nH]c2ccccc12)C(=O)N[C@@H](Cc1ccc(C(=O)c2ccccc2)cc1)C(=O)N1CCC[C@H]1C(=O)NCCCN1CCN(CCCNC(=O)CN2CCN(CC(=O)O)CCN(CC(=O)O)CCN(CC(=O)O)CC2)CC1 [BRU-3044] showed an EC50 of 230 to 500 nM.

Same assay, conditions: BRU-2813 vs BRU-2666; BRU-2964 vs BRU-2813
With CSCC[C@H](NC(=O)[C@H](Cc1c[nH]c2ccccc12)NC(=O)[C@H](CCCNC(=N)N)NC(=O)[C@@H](Cc1ccc2ccccc2c1)NC(=O)CN1CCN(CC(=O)O)CCN(CC(=O)O)CCN(CC(=O)O)CC1)C(=O)N[C@@H](Cc1c[nH]cn1)C(=O)N[C@H](CCCNC(=N)N)C(=O)N[C@@H](Cc1c[nH]c2ccccc12)C(=O)N[C@@H](Cc1ccc(C(=O)c2ccccc2)cc1)C(=O)N1CCC[C@H]1C(=O)NNC(N)=O [BRU-2964] ({DOTA}-[d2Nal]RWMH[dR]W[Bpa]P[azaGly]-NH2) the “more potency than the comparator analog” value was 30%.

Same assay, conditions: EFO-27 cells, competition with [125I-Tyr8]BRU-2477, 90 min
Work on N=C(N)NCCC[C@H](NC(=O)CNC(=O)[C@@H]1CCCN1C(=O)[C@H](Cc1ccc(C(=O)c2ccccc2)cc1)NC(=O)[C@H](Cc1c[nH]c2ccccc12)NC(=O)[C@@H](CCCNC(=N)N)NC(=O)[C@H](Cc1c[nH]cn1)NC(=O)[C@H](CO)NC(=O)[C@H](Cc1c[nH]c2ccccc12)NC(=O)[C@H](CCCNC(=N)N)NC(=O)[C@@H](Cc1ccc2ccccc2c1)NC(=O)CN1CCN(CC(=O)O)CCN(CC(=O)O)CCN(CC(=O)O)CC1)C(N)=O [compound 2969] ({DOTA}-[d2Nal]RWSH[dR]W[Bpa]PGR-NH2) yielded an EC50 of 240 nM. With N=C(N)NCCC[C@H](NC(=O)[C@@H](Cc1ccc2ccccc2c1)NC(=O)CN1CCN(CC(=O)O)CCN(CC(=O)O)CCN(CC(=O)O)CC1)C(=O)N[C@@H](Cc1c[nH]c2ccccc12)C(=O)N[C@@H](CO)C(=O)N[C@@H](Cc1c[nH]cn1)C(=O)N[C@H](CCCNC(=N)N)C(=O)N[C@@H](Cc1c[nH]c2ccccc12)C(=O)N[C@@H](Cc1ccc(C(=O)c2ccccc2)cc1)C(=O)N1CCC[C@H]1C(=O)NCC(=O)N[C@@H](Cc1ccccc1)C(N)=O [compound 2980] ({DOTA}-[d2Nal]RWSH[dR]W[Bpa]PGF-NH2) the EC50 was 970 nM.

Same assay, conditions: Table 5: modifications of amino acids at positions 1 and 2; in vitro binding on EFO-27 cells
N=C(N)NCCC[C@@H](NC(=O)[C@H](Cc1c[nH]cn1)NC(=O)[C@H](CO)NC(=O)[C@H](Cc1c[nH]c2ccccc12)NC(=O)[C@H](Cc1c[nH]cn1)NC(=O)[C@@H](Cc1ccc(O)cc1)NC(=O)CN1CCN(CC(=O)O)CCN(CC(=O)O)CCN(CC(=O)O)CC1)C(=O)N[C@@H](Cc1c[nH]c2ccccc12)C(=O)N[C@@H](Cc1ccc(C(=O)c2ccccc2)cc1)C(=O)N1CCC[C@H]1C(=O)NNC(N)=O [BRU-2870] ({DOTA}-[dY]HWSH[dR]W[Bpa]P[azaGly]-NH2) gave an EC50 of 10000 nM. In the case of CN(CC(=O)N[C@@H](Cc1c[nH]cn1)C(=O)N[C@@H](Cc1c[nH]c2ccccc12)C(=O)N[C@@H](CO)C(=O)N[C@@H](Cc1c[nH]cn1)C(=O)N[C@H](CCCNC(=N)N)C(=O)N[C@@H](Cc1c[nH]c2ccccc12)C(=O)N[C@@H](Cc1ccc(C(=O)c2ccccc2)cc1)C(=O)N1CCC[C@H]1C(=O)NNC(N)=O)C(=O)CNC(=O)CN1CCN(CC(=O)O)CCN(CC(=O)O)CCN(CC(=O)O)CC1 [BRU-2717], the EC50 is reported as 1550 nM.

Same assay, conditions: Table 13: linker between AA1 and DO3A10CM; EFO-27 cells
Compound CN(CC(=O)N[C@@H](Cc1c[nH]cn1)C(=O)N[C@@H](Cc1c[nH]c2ccccc12)C(=O)N[C@@H](CO)C(=O)N[C@@H](Cc1c[nH]cn1)C(=O)N[C@H](CCCNC(=N)N)C(=O)N[C@@H](Cc1c[nH]c2ccccc12)C(=O)N[C@@H](Cc1ccc(C(=O)c2ccccc2)cc1)C(=O)N1CCC[C@H]1C(=O)NNC(N)=O)C(=O)CNC(=O)CN1CCN(CC(=O)O)CCN(CC(=O)O)CCN(CC(=O)O)CC1 [compound 2717] has an EC50 of 1530 nM.
